Reference: PubChem BioAssay (NCI)
Several values for one entry are separate records, joined by “and”; a condition that tells them apart may be missing. Equal values may be shown once.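 Where inhibition never reached the appropriate level, the endpoint shown equals the highest concentration tested. Otherwise, values were interpolated linearly from a five-concentration, 48-hour dose response in 96-well plates. The concentration for 50% growth inhibition is given as GI50. TGI: total growth inhibition.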 Where a SMILES comes first, the peptide text is derived from it. The star is where a group is joined. Boc = CC(C)(C)OC(=O)*; Bn = c1ccc(C*)cc1

Experiments:
Experiment in all cases: NCI-60 cell line screen, 48 h
[1] = system: A498 renal
[2] = system: OVCAR-8 ovarian
[3] = system: IGROV1 ovarian
[4] = system: MOLT-4 leukemia
[5] = system: SF-295 CNS
[6] = system: NCI-H23 lung
[7] = system: SF-539 CNS
[8] = system: MALME-3M melanoma
[9] = system: SF-268 CNS
[10] = system: KM12 colon
[11] = system: ACHN renal
[12] = system: CAKI-1 renal

| SMILES | TGI [1] | TGI [2] | TGI [3] | TGI [4] | TGI [5] | TGI [6] | TGI [7] [µM] | TGI [8] | TGI [9] | TGI [10] | TGI [11] [µM] | TGI [12] [µM] | GI50 [1] | GI50 [5] | GI50 [11] | GI50 [4] [nM] | GI50 [6] [µM] | GI50 [8] [nM] | GI50 [10] [µM] |
| --- | --- | --- | --- | --- | --- | --- | --- | --- | --- | --- | --- | --- | --- | --- | --- | --- | --- | --- | --- |
| CC(=O)NC1COC(COC(=O)CCCCCCCCCCNC(=O)c2ccc([N+](=O)[O-])c3c(=O)c4ccccc4[nH]c23)C(O)C1OC(C)C(=O)NC(C(=O)NC(CCC(N)=O)C(=O)OCc1ccccc1)C(C)C (stereo not given) | 47.7 µM | 44.1 µM | 18.3 µM | 61.3 µM | 42.7 µM | 27.3 µM | 58.3 | > 83.8 µM | 32.8 µM | 11.6 µM | 39.4 | 23.4 | – | – | – | – | – | – | – |
| NC(=O)CCC(NC(=O)c1c2ccccc2nc2ccccc12)C(=O)O (stereo not given) | > 100 µM | > 100 µM | > 100 µM | > 100 µM | > 100 µM | > 100 µM | > 100 | > 100 µM | > 100 µM | > 100 µM | > 100 | > 100 | – | – | – | – | – | – | – |
| O=S(=O)(CCC[C@H]1[C@@H](CCOCc2ccccc2)C2CCCN1O2)c1ccccc1 (stereo not given in full) | > 100 µM | > 100 µM | > 100 µM | > 100 µM | > 100 µM | > 100 µM | > 100 | > 100 µM | > 100 µM | > 100 µM | > 100 | > 100 | – | – | – | – | – | – | – |
| O=CN1CCC23CC(O)CCC2C1Cc1cc(Oc2nnnn2-c2ccccc2)cc(O)c13 (stereo not given) | > 100 µM | > 100 µM | > 100 µM | > 100 µM | > 100 µM | > 100 µM | > 100 | > 100 µM | > 100 µM | > 100 µM | > 100 | > 100 | – | – | – | – | – | – | – |
| CC(=O)NNc1nc(C)c(C(=O)/C=C/c2ccc(Cl)c(Cl)c2)s1 | > 100 µM | > 100 µM | > 100 µM | > 100 µM | > 100 µM | > 100 µM | > 100 | > 100 µM | > 100 µM | > 100 µM | > 100 | > 100 | – | – | – | – | – | – | – |
| O=[N+]([O-])/C(Cl)=C/C(=C1/Nc2ccccc2O1)[N+](=O)[O-] | 38.3 µM | 40.5 µM | > 100 µM | 87.2 µM | 73.7 µM | 54.4 µM | 59.4 | 29.8 µM | 54.4 µM | 36.2 µM | 37.5 | 45.9 | – | – | – | – | – | – | – |
| CC(C)Cn1cnc2c(Cl)nc3ccccc3c21 | > 100 µM | > 100 µM | > 100 µM | > 100 µM | > 100 µM | > 100 µM | > 100 | > 100 µM | > 100 µM | > 100 µM | > 100 | > 100 | – | – | – | – | – | – | – |
| Cc1cn(C2CCN(CC3COC(C)(C)O3)O2)c(=O)[nH]c1=O (stereo not given) | > 100 µM | > 100 µM | > 100 µM | > 100 µM | > 100 µM | > 100 µM | > 100 | > 100 µM | > 100 µM | > 100 µM | > 100 | > 100 | – | – | – | – | – | – | – |
| O=C1/C(=C/c2ccc(O)c(O)c2)CC/C1=C\c1ccc(O)c(O)c1 | 63.2 µM | > 87.2 µM | > 58.5 µM | > 36.8 µM | > 100 µM | 11.3 µM | 9.64 | > 100 µM | 26.7 µM | > 100 µM | 26.6 | > 57.7 | – | – | – | – | – | – | – |
| CCC(C)C(NC(=O)C(CC(C)C)NC(=O)CNC(=O)C(NC(=O)C1CCCN1C(=O)C(CC(C)C)NC(=O)C(N)Cc1ccccc1)C(C)CC)C(=O)NC(CC(C)C)C(N)=O (stereo not given) (H-FLPIGLIL-NH2; configuration not given here) | > 75 µM | > 75 µM | > 75 µM | > 75 µM | > 75 µM | > 75 µM | > 75 | > 75 µM | > 75 µM | > 75 µM | > 75 | > 75 | – | – | – | – | – | – | – |
| O=c1[nH]nc(Cc2ccccc2)n1/N=C/c1ccc([N+](=O)[O-])cc1 | > 100 µM | > 100 µM | > 100 µM | > 100 µM | > 100 µM | > 100 µM | > 100 | > 100 µM | > 100 µM | > 100 µM | > 100 | > 100 | – | – | – | – | – | – | – |
| NC(N)=NS(=O)(=O)c1ccc(NC(=O)c2cccc3c(N)c4ccccc4nc23)cc1 | > 100 µM | > 100 µM | > 100 µM | > 100 µM | > 100 µM | > 100 µM | > 100 | > 100 µM | > 100 µM | > 100 µM | > 100 | > 100 | – | – | – | – | – | – | – |
| CC(=O)Nc1cc2nc3n(c2cc1C)CCC3OC(C)=O (stereo not given) | > 100 µM | > 100 µM | > 100 µM | > 100 µM | > 100 µM | > 100 µM | > 100 | > 100 µM | > 100 µM | > 100 µM | > 100 | > 100 | – | – | – | – | – | – | – |
| C(#CC1(Nc2ccccc2)CCN(Cc2ccccc2)CC1)C1(Nc2ccccc2)CCN(Cc2ccccc2)CC1 | > 46.4 µM | 53.5 µM | > 46.4 µM | 32.7 µM | > 56.2 µM | > 56.2 µM | 34.9 | > 65.6 µM | 47.8 µM | > 56.2 µM | > 56.2 | 44.5 | – | – | – | – | – | – | – |
| CCCCCCCCCCOCCOCCOCCOCCCCC(O)CCCCCCCC1=C[C@H](C)OC1=O (stereo not given in full) | 26.5 µM | 33.6 µM | 30.5 µM | 20.8 µM | 21.5 µM | 16.6 µM | 24.5 | 46.3 µM | 22.9 µM | 23.9 µM | 36 | 32.2 | – | – | – | – | – | – | – |
| CCC1CCC2c3c([nH]c4ccc(C)cc34)C3C(=O)N(N(C)C)C(=O)C3C2C1 (stereo not given) | > 100 µM | > 100 µM | > 100 µM | > 100 µM | > 33.4 µM | > 100 µM | 45.5 | 39.2 µM | > 59.8 µM | > 100 µM | > 100 | > 100 | – | – | – | – | – | – | – |
| O=C(Nc1cccc(C(=O)NCCCO)c1)/C(=C/c1ccccc1)NC(=O)c1ccccc1 | > 100 µM | > 100 µM | > 100 µM | > 100 µM | > 100 µM | > 100 µM | > 100 | > 100 µM | > 100 µM | > 100 µM | > 100 | > 100 | – | – | – | – | – | – | – |
| CNC(=O)C(CC(C)C)NC(=O)C(C)NC(=O)C(Cc1ccc(OCc2ccccc2)cc1)NC(=O)C(COCc1ccccc1)NC(=O)OC(C)(C)C (stereo not given) (Boc-S(Bn)Y(Bn)AL-NHMe; configuration not given here) | 94 µM and 30.3 µM | 35 µM and 48.5 µM | 53.9 µM and 63.7 µM | 22.9 µM and 38.5 µM | > 61 µM and 41.2 µM | > 71.1 µM and 43.3 µM | > 57.8 | > 100 µM and 18.1 µM | 53.8 µM and 46.5 µM | > 44.2 µM and 40.3 µM | > 100 | > 100 | 33.7 µM and 12.5 µM | > 43.9 µM and 21 µM | > 100 µM and 13 µM | – | – | – | – |
| Cc1cccc(C)c1N=Nc1ccc(O)c(CN(C)C)c1 | > 100 µM | > 100 µM | > 100 µM | > 100 µM | > 100 µM | > 100 µM | > 100 | 76.2 µM | > 100 µM | > 100 µM | > 100 | > 100 | – | – | – | – | – | – | – |
| CC1=N[C@@](C)(C2CC3C=CC2C3=O)COC1=O (stereo not given in full) | > 100 µM | > 100 µM | > 100 µM | > 100 µM | > 100 µM | > 100 µM | > 100 | > 100 µM | > 100 µM | > 100 µM | > 100 | > 100 | – | – | – | – | – | – | – |
| Cc1cc2c(cc1Cl)SC(NNC1=NCCN1)=NS2(=O)=O | > 10 µM | > 10 µM | > 10 µM | > 10 µM | > 10 µM | > 10 µM | > 10 | > 10 µM | > 10 µM | > 10 µM | > 10 | > 10 | – | – | – | – | – | – | – |
| NC(CCCCNCc1ccccc1)C(=O)O (stereo not given) | > 100 µM | > 100 µM | > 100 µM | > 100 µM | > 100 µM | > 100 µM | > 100 | > 100 µM | > 100 µM | > 100 µM | > 100 | > 100 | – | – | – | – | – | – | – |
| C=C1c2nc3ccccc3n2C=C(c2ccc(Cl)cc2)N1c1ccc(OCCN2CCCCC2)cc1 | > 100 µM | > 45 µM | > 45 µM | > 45 µM and 9.22 µM | > 45 µM | > 100 µM | > 100 | 45 µM and > 100 µM | 45 µM | > 100 µM | > 100 | > 45 | > 100 µM | – | > 100 µM | 553 | > 100 | 415 | > 100 |
